Laboratory results from patent US20260285850A1, “SUBSTITUTED OXAZOLIDINONES AND IMIDAZOLINONES AS HERBICIDES” (FMC CORPORATION, priority 2023, published 2026).

Columns and labels:
Format in all cases: in vivo
[1] = test system: oat, wild (wild oat, Avena fatua); experiment: Test A postemergence application, visual injury rating 0-100; details: 10 days
Method in brief: (§1)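 Compounds formulated in a non-phytotoxic solvent with surfactant are sprayed onto soil of freshly planted loam-sand pots ahead of emergence, or onto emerged plants 2-10 cm tall. After a 10-day greenhouse period, each species is scored visually for injury against untreated controls.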

[2] = test system: blackgrass (Alopecurus myosuroides); experiment: as above; details: 10 days
Method in brief: as §1

[3] = test system: palmer (palmer amaranth, palmer pigweed, Amaranthus palmeri); experiment: as above; details: 10 days
Method in brief: as §1

kochia (Bassia scoparia) [4] = experiment: as above; details: 10 days
Method in brief: as §1

[5] = test system: wheat (Triticum aestivum); experiment: as above; details: 10 days
Method in brief: as §1

[6] = test system: ryegrass, Italian (italian ryegrass, Lolium multiflorum); experiment: as above; details: 10 days
Method in brief: as §1

[7] = test system: barnyardgrass (Echinochloa crus-galli); experiment: as above; details: 10 days
Method in brief: as §1

[8] = test system: ragweed (common ragweed, Ambrosia artemisiifolia); experiment: as above; details: 10 days
Method in brief: as §1

[9] = test system: green foxtail (Setaria viridis); experiment: as above; details: 10 days
Method in brief: as §1

soybean (Glycine max) [10] = experiment: as above; details: 10 days
Method in brief: as §1

corn (Zea mays) [11] = experiment: as above; details: 10 days
Method in brief: as §1

[12] = test system: galium (catchweed bedstraw, Galium aparine); experiment: as above; details: 10 days
Method in brief: as §1

[13] = test system: horseweed (Erigeron canadensis); experiment: as above; details: 10 days
Method in brief: as §1

[14] = test system: oat, wild (wild oat, Avena fatua); experiment: Test A preemergence soil spray, visual injury rating 0-100; details: 10 days, 0 = no effect, 100 = complete control
Method in brief: as §1

[15] = test system: blackgrass (Alopecurus myosuroides); experiment: as above; details: 10 days, 0 = no effect, 100 = complete control
Method in brief: as §1

[16] = test system: palmer (palmer amaranth, palmer pigweed, Amaranthus palmeri); experiment: as above; details: 10 days, 0 = no effect, 100 = complete control
Method in brief: as §1

kochia (Bassia scoparia) [17] = experiment: as above; details: 10 days, 0 = no effect, 100 = complete control
Method in brief: as §1

[18] = test system: wheat (Triticum aestivum); experiment: as above; details: 10 days, 0 = no effect, 100 = complete control
Method in brief: as §1

[19] = test system: ryegrass, Italian (italian ryegrass, Lolium multiflorum); experiment: as above; details: 10 days, 0 = no effect, 100 = complete control
Method in brief: as §1

[20] = test system: barnyardgrass (Echinochloa crus-galli); experiment: as above; details: 10 days, 0 = no effect, 100 = complete control
Method in brief: as §1

[21] = test system: ragweed (common ragweed, Ambrosia artemisiifolia); experiment: as above; details: 10 days, 0 = no effect, 100 = complete control
Method in brief: as §1

[22] = test system: green foxtail (Setaria viridis); experiment: as above; details: 10 days, 0 = no effect, 100 = complete control
Method in brief: as §1

soybean (Glycine max) [23] = experiment: as above; details: 10 days, 0 = no effect, 100 = complete control
Method in brief: as §1

corn (Zea mays) [24] = experiment: as above; details: 10 days, 0 = no effect, 100 = complete control
Method in brief: as §1

[25] = test system: barnyardgrass (Echinochloa crusgalli); experiment: Test B flooded paddy test, visual plant response rating 0-100; details: 250 g ai/ha, Flood, applied to paddy water, evaluated after 13 days
Method in brief: (§2)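 Paddy-water application: test compounds went directly into water flooded 3 cm above the soil surface, with plants at 2 leaves. After a 13-day greenhouse period, responses were judged by eye relative to controls; a dash marks an untested entry.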

rice (Oryza sativa) = experiment: as above; details: 250 g ai/ha, Flood, applied to paddy water, evaluated after 13 days
Method in brief: as §2

[26] = test system: sedge, umbrella (small-flower umbrella sedge, Cyperus difformis); experiment: as above; details: 250 g ai/ha, Flood, applied to paddy water, evaluated after 13 days
Method in brief: as §2

[27] = test system: ducksalad (Heteranthera limosa); experiment: as above; details: 250 g ai/ha, Flood, applied to paddy water, evaluated after 13 days
Method in brief: as §2

[28] = 31 g ai/ha, postemergence, 0 = no effect, 100 = complete control
[29] = Postemergence, 125 g ai/ha, 0 is no effect, 100 is complete control

CCOC(=O)C1CC(NC(=O)C2(C)CN(c3cc(F)cc(F)c3)C(=O)O2)CO1 (stereo not shown) [Compound 31]
Oat, Wild plant response rating (0-100) [1, 28]: 80
Oat, Wild plant response rating (0 to 100 scale) [1, 29]: 90
Blackgrass plant response rating (0-100) [2, 28]: 90
Blackgrass plant response rating (0 to 100 scale) [2, 29]: 100
Amaranth, Palmer plant response rating (0-100) [3, 28]: 0
Amaranth, Palmer / Pigweed, Palmer plant response rating (0 to 100 scale) [3, 29]: 20
Kochia plant response rating (0-100) (kochia (Bassia scoparia) [4]; [28]): 0
Kochia plant response rating (0 to 100 scale) (kochia (Bassia scoparia) [4]; [29]): 70
Wheat plant response rating (0-100) [5, 28]: 90
Wheat plant response rating (0 to 100 scale) [5, 29]: 90
Ryegrass, Italian plant response rating (0-100) [6, 28]: 60
Ryegrass, Italian plant response rating (0 to 100 scale) [6, 29]: 90
Barnyardgrass plant response rating (0-100) [7, 28]: 10
Barnyardgrass plant response rating (0 to 100 scale) [7, 29]: 90
Ragweed plant response rating (0-100) [8, 28]: 30
Ragweed plant response rating (0 to 100 scale) [8, 29]: 50
Foxtail, Green plant response rating (0-100) [9, 28]: 0
Foxtail, Green plant response rating (0 to 100 scale) [9, 29]: 80
Soybean plant response rating (0-100) (soybean (Glycine max) [10]; [28]): 10
Soybean plant response rating (0 to 100 scale) (soybean (Glycine max) [10]; [29]): 60
Corn plant response rating (0-100) (corn (Zea mays) [11]; [28]): 0
Corn plant response rating (0 to 100 scale) (corn (Zea mays) [11]; [29]): 50
Galium plant response rating (0-100) [12, 28]: 60
Galium plant response rating (0 to 100 scale) [12, 29]: 70
Horseweed plant response rating (0-100) [13, 28]: 0
Horseweed plant response rating (0 to 100 scale) [13, 29]: 0
Oat, Wild plant response rating (0-100) ([14]; 31 g ai/ha): 0
Oat, Wild plant response rating (0 to 100 scale) ([14]; 125 g ai/ha): 30
Blackgrass plant response rating (0-100) ([15]; 31 g ai/ha): 20
Blackgrass plant response rating (0 to 100 scale) ([15]; 125 g ai/ha): 30
Amaranth, Palmer plant response rating (0-100) ([16]; 31 g ai/ha): 0
Amaranth, Palmer plant response rating (0 to 100 scale) ([16]; 125 g ai/ha): 10
Kochia plant response rating (0-100) (kochia (Bassia scoparia) [17]; 31 g ai/ha): 0
Kochia plant response rating (0 to 100 scale) (kochia (Bassia scoparia) [17]; 125 g ai/ha): 0
Wheat plant response rating (0-100) ([18]; 31 g ai/ha): 0
Wheat plant response rating (0 to 100 scale) ([18]; 125 g ai/ha): 90
Ryegrass, Italian plant response rating (0-100) ([19]; 31 g ai/ha): 0
Ryegrass, Italian plant response rating (0 to 100 scale) ([19]; 125 g ai/ha): 60
Barnyardgrass plant response rating (0-100) ([20]; 31 g ai/ha): 0
Barnyardgrass plant response rating (0 to 100 scale) ([20]; 125 g ai/ha): 0
Ragweed plant response rating (0-100) ([21]; 31 g ai/ha): 0
Ragweed plant response rating (0 to 100 scale) ([21]; 125 g ai/ha): 0
Foxtail, Green plant response rating (0-100) ([22]; 31 g ai/ha): 0
Foxtail, Green plant response rating (0 to 100 scale) ([22]; 125 g ai/ha): 0
Soybean plant response rating (0-100) (soybean (Glycine max) [23]; 31 g ai/ha): 0
Soybean plant response rating (0 to 100 scale) (soybean (Glycine max) [23]; 125 g ai/ha): 0
Corn plant response rating (0-100) (corn (Zea mays) [24]; 31 g ai/ha): 0
Corn plant response rating (0 to 100 scale) (corn (Zea mays) [24]; 125 g ai/ha): 0
Plant response rating, Barnyardgrass (0 to 100 scale, 0 is no effect and 100 is complete control) [25]: 0
Plant response rating, Rice (0 to 100 scale, 0 is no effect and 100 is complete control) (rice (Oryza sativa)): 0
Plant response rating, Sedge, Umbrella (0 to 100 scale, 0 is no effect and 100 is complete control) [26]: 0
Plant response rating, Ducksalad (0 to 100 scale, 0 is no effect and 100 is complete control) [27]: 0
